# Results taken from ChEMBL document CHEMBL6134893, “The Exploration of Indole-Based LSD1-Targeted Inhibitors for Enhanced Immune Response in Gastric Cancer via the PD-L1/PD-1 Axis” (J Med Chem, 2025).
# Target: T1, Lysine-specific histone demethylase 1A (Homo sapiens, UniProt O60341)
# Assay: Inhibition of recombinant LSD1 (unknown origin) extracted from Escherichia coli BL21 (DE3) using H3K4me2 peptide as substrate in presence of […] by Amplex Red assay
# Details: not given
row,SMILES,IC50
1,O=S(=O)(c1ccc(Cl)cc1)n1cc(CNC2CC2)c2cc(Cl)ccc21,> 10000 nM
2,C=C1C(=O)OCC1C(O)c1cn(S(=O)(=O)c2c(Cl)cccc2Cl)c2ccc(Cl)cc12 (configuration not stated),968 nM
3,C=C1C(=O)OCC1C(O)c1cn(S(=O)(=O)c2cccc(C(F)(F)F)c2)c2ccc(Cl)cc12 (configuration not stated),213 nM
4,C=C1C(=O)OCC1C(O)c1ccn(S(=O)(=O)c2ccc(C)cc2)c1 (configuration not stated),> 10000 nM
5,C=C1C(=O)OCC1C(O)c1cn(S(=O)(=O)c2ccc(OC)cc2)c2ccc(Cl)cc12 (configuration not stated),855 nM
6,C=C1C(=O)OCC1C(O)c1cn(S(=O)(=O)c2ccc(N3C[C@@H]4C[C@H]3CN4C(=O)OC(C)(C)C)c([N+](=O)[O-])c2)c2ccc(Cl)cc12 (some centres not stated),3350 nM
7,C=C1C(=O)OCC1C(O)c1cn(S(=O)(=O)c2cccc([N+](=O)[O-])c2)c2ccc(Cl)cc12 (configuration not stated),107 nM
8,C=C1C(=O)OCC1C(O)c1cn(S(=O)(=O)c2ccc(CN3CCN(C(=O)OC(C)(C)C)CC3)cc2)c2ccc(Cl)cc12 (configuration not stated),1180 nM
9,C=C1C(=O)OCC1C(O)c1cn(S(=O)(=O)c2ccc(Cl)cc2)c2ccc(Cl)cc12 (configuration not stated),929 nM
10,C=C1C(=O)OCC1C(O)c1cn(S(=O)(=O)c2ccc(N3CCN(CC)CC3)c([N+](=O)[O-])c2)c2ccc(Cl)cc12 (configuration not stated),287 nM
11,C=C1C(=O)OCC1C(O)c1cn(S(=O)(=O)c2ccccc2F)c2ccc(Cl)cc12 (configuration not stated),219 nM
12,C=C1C(=O)OCC1C(O)c1cn(S(=O)(=O)c2ccccc2)c2ccc(Cl)cc12 (configuration not stated),1110 nM
13,C=C1C(=O)OCC1C(O)c1cn(S(=O)(=O)c2ccccc2C)c2ccc(Cl)cc12 (configuration not stated),261 nM
14,C=C1C(=O)OCC1C(O)c1cn(S(=O)(=O)c2ccc(F)c(C(F)(F)F)c2)c2ccc(Cl)cc12 (configuration not stated),654 nM
15,C=C1C(=O)OCC1C(O)c1cn(S(=O)(=O)c2ccccc2[N+](=O)[O-])c2ccc(Cl)cc12 (configuration not stated),755 nM
16,C=C1C(=O)OCC1C(O)c1cn(S(C)(=O)=O)c2ccc(Cl)cc12 (configuration not stated),9130 nM
17,C=C1C(=O)OCC1C(O)c1cn(S(=O)(=O)c2ccc(N3CCC(NC(=O)OC(C)(C)C)C3)c([N+](=O)[O-])c2)c2ccc(Cl)cc12 (configuration not stated),440 nM
18,C=C1C(=O)OCC1C(O)c1cn(S(=O)(=O)c2ccc(OC(F)(F)F)cc2)c2ccc(Cl)cc12 (configuration not stated),1420 nM
19,C=C1C(=O)OCC1C(O)c1cn(S(=O)(=O)CCC)c2ccc(Cl)cc12 (configuration not stated),6650 nM
20,C=C1C(=O)OCC1C(O)c1ccn(S(=O)(=O)c2ccc(Br)cc2)c1 (configuration not stated),> 10000 nM
21,C=C1C(=O)OCC1C(O)c1cn(S(=O)(=O)c2ccc(Cl)cc2Cl)c2ccc(Cl)cc12 (configuration not stated),363 nM
22,C=C1C(=O)OCC1C(O)c1cn(S(=O)(=O)c2ccc(Cl)c([N+](=O)[O-])c2)c2ccc(Cl)cc12 (configuration not stated),99 nM
23,C=C1C(=O)OCC1C(O)c1cn(S(=O)(=O)c2ccc(CN3CCOCC3)cc2)c2ccc(Cl)cc12 (configuration not stated),606 nM
24,C=C1C(=O)OCC1C(O)c1cn(S(=O)(=O)c2ccc(CBr)cc2)c2ccc(Cl)cc12 (configuration not stated),933 nM
25,C=C1C(=O)OCC1C(O)c1cn(S(=O)(=O)c2ccc(F)cc2)c2ccc(Cl)cc12 (configuration not stated),1340 nM

row,SMILES,IC50
1,C=C1C(=O)OCC1C(O)c1cn(S(=O)(=O)c2ccc(CNCc3ccc(Cl)cc3)cc2)c2ccc(Cl)cc12 (configuration not stated),2340 nM
2,C=C1C(=O)OCC1C(O)c1cn(S(=O)(=O)C2CC2)c2ccc(Cl)cc12 (configuration not stated),5680 nM
3,C=C1C(=O)OCC1C(O)c1cn(S(=O)(=O)c2ccccc2Br)c2ccc(Cl)cc12 (configuration not stated),161 nM
4,C=C1C(=O)OCC1C(O)c1cn(S(=O)(=O)c2ccc(C(F)(F)F)cc2)c2ccc(Cl)cc12 (configuration not stated),1460 nM
5,O=S(=O)(c1ccc(Cl)cc1)n1cc(CNCC2CC2)c2cc(Cl)ccc21,> 10000 nM
6,C=C1C(=O)OCC1C(O)c1ccn(S(=O)(=O)c2ccc(Cl)cc2)c1 (configuration not stated),> 10000 nM
7,C=C1C(=O)OCC1C(O)c1cn(S(=O)(=O)c2ccc(N3CCN(CCO)CC3)c([N+](=O)[O-])c2)c2ccc(Cl)cc12 (configuration not stated),284 nM
8,C=C1C(=O)OCC1C(O)c1cn(S(=O)(=O)c2ccc(Cl)c(N)c2)c2ccc(Cl)cc12 (configuration not stated),> 5000 nM
9,C=C1C(=O)OCC1C(O)c1cn(S(=O)(=O)c2ccc(N3CCN(C(=O)OC(C)(C)C)CC3)c([N+](=O)[O-])c2)c2ccc(Cl)cc12 (configuration not stated),459 nM
10,C=C1C(=O)OCC1C(=O)c1cn(S(=O)(=O)c2ccc(Cl)cc2)c2ccc(Cl)cc12 (configuration not stated),> 10000 nM
11,C=C1C(=O)OCC1C(O)c1cn(S(=O)(=O)c2ccc(N(CCC)CCC)c([N+](=O)[O-])c2)c2ccc(Cl)cc12 (configuration not stated),3390 nM
12,C=C1C(=O)OCC1C(O)c1cn(S(=O)(=O)c2ccc([N+](=O)[O-])cc2)c2ccc(Cl)cc12 (configuration not stated),1380 nM
13,C=C1C(=O)OCC1C(O)c1cn(S(=O)(=O)c2ccc(N3CCN(C)CC3)c([N+](=O)[O-])c2)c2ccc(Cl)cc12 (configuration not stated),463 nM
14,C=C1C(=O)OCC1C(O)c1cn(S(=O)(=O)c2ccccc2Cl)c2ccc(Cl)cc12 (configuration not stated),366 nM
15,C=C1C(=O)OCC1C(O)c1cn(S(=O)(=O)c2ccc(N3CCCC3)c([N+](=O)[O-])c2)c2ccc(Cl)cc12 (configuration not stated),2480 nM
16,C=C1C(=O)OCC1C(O)c1cn(S(=O)(=O)c2ccc(Cl)c(Cl)c2)c2ccc(Cl)cc12 (configuration not stated),579 nM
17,C=C1C(=O)OCC1C(O)c1cn(S(=O)(=O)c2ccc(NCC(C)C)c([N+](=O)[O-])c2)c2ccc(Cl)cc12 (configuration not stated),131 nM
18,C=C1C(=O)OCC1C(O)c1cn(S(=O)(=O)c2ccc(Br)cc2)c2ccc(Cl)cc12 (configuration not stated),1150 nM
19,C=C1C(=O)OCC1C(O)c1cn(S(=O)(=O)c2ccc(NCCC)c([N+](=O)[O-])c2)c2ccc(Cl)cc12 (configuration not stated),664 nM
20,C=C1C(=O)OCC1C(O)c1cn(S(=O)(=O)c2ccc(NC)c([N+](=O)[O-])c2)c2ccc(Cl)cc12 (configuration not stated),89 nM
21,C=C1C(=O)OCC1C(O)c1cn(S(=O)(=O)c2ccc(N3CCCN(C(=O)OC(C)(C)C)CC3)c([N+](=O)[O-])c2)c2ccc(Cl)cc12 (configuration not stated),4960 nM
22,C=C1C(=O)OCC1C(O)c1cn(S(=O)(=O)c2cccc(Cl)c2)c2ccc(Cl)cc12 (configuration not stated),746 nM
23,C=C1C(=O)OC/C1=C\c1cn(S(=O)(=O)c2ccc(Cl)cc2)c2ccc(Cl)cc12,> 10000 nM
24,C=C1C(=O)OCC1C(O)c1cn(S(=O)(=O)c2ccc(N3CCCC(NC(=O)OC(C)(C)C)C3)c([N+](=O)[O-])c2)c2ccc(Cl)cc12 (configuration not stated),714 nM
25,C=C1C(=O)OCC1C(O)c1cn(S(=O)(=O)c2ccc(N3CCCCC3)c([N+](=O)[O-])c2)c2ccc(Cl)cc12 (configuration not stated),2130 nM

# Target: Lysine-specific histone demethylase 1A (Mus musculus) (UniProt Q6ZQ88)
# Assay: Inhibition of LSD1 in mouse MFC cells assessed as accumulation of membrane PD-L1 at 2 uM incubated for 5 days
# Assay type: cell-based
# Set-up: scale not given: the % may be the effect or the level left
# Details: time 5.0 day
row,SMILES,Activity
1,N[C@H]1CC[C@H](N[C@@H]2C[C@H]2c2ccccc2)CC1,40.4%

# Target: T1, Lysine-specific histone demethylase 1A
# Assay: Inhibition of LSD1 in human MKN-45 cells assessed as accumulation of membrane PD-L1 at 2 uM incubated for 5 days
# Assay type: cell-based
# Set-up: scale not given: the % may be the effect or the level left
# Details: time 5.0 day
row,SMILES,Activity
1,N[C@H]1CC[C@H](N[C@@H]2C[C@H]2c2ccccc2)CC1,48.5%
